Reference: US5432179A, “Piperazine derivatives and pharmaceuticals containing the same” (Zeria Pharmaceutical Co., Ltd., priority 1991, dated 1995)

Assays:
[1] = system: passive cutaneous anaphylaxis (PCA); test: Antiallergic effects: passive cutaneous anaphylaxis (PCA), inhibition of leaked color amount; assay type: in vivo, male SD rat; settings: rat PCA; oral, 10 mg/4 ml/kg one hour before the administration of antigen
Procedure: The back of a male SD rat (150-250 g in weight) was shaved in advance. Physiological saline and 0.1 ml of anti DNP-AS (Dinitrophenyl conjugated Ascaris) IgE serum which had been diluted to a suitable concentration with physiological saline were intradermally injected there. Fourty-eight hours after sensitization, the animals were challenged with 1 ml of 0.5% Evans blue physiological saline containing 2.5 mg/ml of DNP-BSA (dinitrophenyl conjugated bovine serum albumin) via the tail vein. Thirty minutes later, they were sacrificed under exsanguination and the dorsal skin was removed and the exuded dye was measured according to the method proposed by Harada et al. [Allergy, 15, 1-7(1966)]. The leaked color amount caused by the passive cutaneous anaphylaxis (PCA) was determined by subtracting the leaked color amount of the site to which physiological saline was administered from that of the PCA site. Each test compound was suspended in 5% gum arabic or 0.5% methylcellulose and the-resulting suspension was orally administered at the rate of 10 mg/4 ml/kg one hour before the administration of antigen. The efficacy of the test compound was evaluated by an ihibition rate (antiallergic effects) of the leaked color amount.

[2] = system: contraction reaction of the isolated ileum caused by histamine; test: Antihistamic effects: inhibition of histamine-induced contraction of isolated guinea pig ileum (Magnus bath); assay type: cell-based, Hartley male guinea pig; settings: Cavia porcellus, histamine 3×10^-7 mole, test compound for 3 minutes before histamine, 30° C., read-out: antihistamic action (50% inhibition concentration: IC50 value)
Procedure: From a Hartley male guinea pig (300-600 g in weight), the ileum was isolated. The ileum was attached to a holder under a vesting tension of 0.5 g in a Magnus bath (30° C., under aeration) filled with 10 ml of the Tyrode solution. As a contraction reaction of the isolated ileum caused by histamine (3×10^-7 mole), an isometrical change in muscular tension was measured. The ileum was treated with the test compound for 3 minutes before the addition of histamine to study its effects and then its antihistamic action (50% inhibition concentration: IC50 value) was determined.
Incidentally, the IC50 value of Cetirizine (the compound disclosed in Japanese Patent Laid-Open No. 149282/1982) was determined as a control. Its IC value was 2.40 μM.

Molecule | Antiallergic effects (inhibition rate of the leaked color amount) [1] [%] | IC50 [2] [µM]
O=C(Nc1nnn[nH]1)c1ccccc1OCCCN1CCN(C(c2ccccc2)c2ccccc2)CC1 [Example 46, 2-[3-[4-(Diphenylmethyl)-1-piperazinyl]propoxy]-N-1H-tetrazol-5-yl-benzamid] | 59.8 | 
O=C(O)c1ccccc1OCCN1CCN(C(c2ccccc2)c2ccccc2)CC1 [Example 9, 2-[2-[4-(Diphenylmethyl]-1-piperazinyl]ethoxy]-benzoic acid] | 61.9 | 
O=C(O)COCCN1CCN(C(c2ccccc2)c2ccc(Cl)cc2)CC1 (stereo not drawn) [Cetirizine] |  | 2.4
O=C(Nc1nnn[nH]1)c1ccccc1OCCN1CCN(C(c2ccccc2)c2ccc(Cl)cc2)CC1 (stereo not drawn) [Example 41, 2-[2-[4-[(4-Chlorophenyl)phenylmethyl]-1-piperazinyl]ethoxy]-N-1H-tetrazol-5-yl-benzamide] | 52.3 | 
2-[2-[4-[(4-Chlorophenyl)phenylmethyl]-1-piperazinyl]ethoxy]-1-tetrazol-5-ylmethyl [Example 69] | 81.0 | 
O=C(O)c1ccccc1OCCN1CCN(C(c2ccccc2)c2ccc(Cl)cc2)CC1 (stereo not drawn) [Example 5, 2-[2-[4-[(4-Chlorophenyl)phenylmethyl]-1-piperazinyl]ethoxy]benzoic acid] | 86.4 | 
O=C(Nc1nnn[nH]1)c1ccccc1OCCCN1CCN(C(c2ccccc2)c2ccc(Cl)cc2)CC1 (stereo not drawn) [Example 45, 2-[3-[4-[(4-Chlorophenyl)phenylmethyl]-1-piperazinyl]propoxy]-N-1H-tetrazol-5-yl-benzamide] | 72.4 | 
O=C(COCCN1CCN(C(c2ccccc2)c2ccc(Cl)cc2)CC1)Nc1nnn[nH]1 (stereo not drawn) [Example 50, 2-[2-[4-[(4-Chlorophenyl)phenylmethyl]-1-piperazinyl]ethoxy]-N-1H-tetrazol-5-yl-acetamide] | 60.4 | 
O=C(Nc1nnn[nH]1)c1ccccc1SCCN1CCN(C(c2ccccc2)c2ccc(Cl)cc2)CC1 (stereo not drawn) [Example 44, 2-[[2-[4-[(4-Chlorophenyl)phenylmethyl]-1-piperazinyl]ethyl]thio]-N-1H-tetrazol-5-yl-benzamide] | 54.7 | 
